Results: the NIST ThermoML archive (doi:10.1021/je9008014)
Numbers after ± are expanded uncertainties.

Test: xn = mol fraction of the nth substance listed
Conditions: 101 kPa, Liquid; for mass density: Pycnometric method

CCOCCOCCOCCO [2-(2-(2-ethoxyethoxy)ethoxy)ethanol] + O
Conditions | mass density [kg/m3] | viscosity [mPa·s]
293.15 K, x1 = 0.01119 | 1006.9 ± 2 | 1.484 ± 0.036
293.15 K, x1 = 0.02492 | 1016.6 ± 2 | 2.221 ± 0.052
293.15 K, x1 = 0.04128 | 1026.2 ± 2.1 | 3.256 ± 0.074
293.15 K, x1 = 0.06284 | 1035.1 ± 2.1 | 4.832 ± 0.11
293.15 K, x1 = 0.09179 | 1040.8 ± 2.1 | 6.993 ± 0.14
293.15 K, x1 = 0.1317 | 1042.7 ± 2.1 | 9.102 ± 0.17
293.15 K, x1 = 0.1905 | 1042.2 ± 2.1 | 10.54 ± 0.19
293.15 K, x1 = 0.2885 | 1038.7 ± 2.1 | 11.29 ± 0.21
293.15 K, x1 = 0.4019 | 1033.6 ± 2.1 | 11.34 ± 0.21
293.15 K, x1 = 0.4747 | 1031.1 ± 2.1 | 10.93 ± 0.2
293.15 K, x1 = 0.6076 | 1027.3 ± 2.1 | 10.06 ± 0.19
293.15 K, x1 = 0.7399 | 1024.4 ± 2.1 | 9.168 ± 0.18
293.15 K, x1 = 0.8176 | 1022.9 ± 2.1 | 8.738 ± 0.17
293.15 K, x1 = 0.8956 | 1021.8 ± 2.1 | 8.353 ± 0.17
293.15 K, x1 = 1 | 1020.6 ± 2.1 | 7.796 ± 0.16
298.15 K, x1 = 1 | 1016.3 ± 2.1 | 6.739 ± 0.14
303.15 K, x1 = 0.01119 | 1003.7 ± 2 | 1.129 ± 0.028
303.15 K, x1 = 0.02492 | 1012.6 ± 2 | 1.595 ± 0.038
303.15 K, x1 = 0.04128 | 1020.7 ± 2.1 | 2.344 ± 0.054
303.15 K, x1 = 0.06284 | 1028.7 ± 2.1 | 3.349 ± 0.075
303.15 K, x1 = 0.09179 | 1032.8 ± 2.1 | 4.589 ± 0.1
303.15 K, x1 = 0.1317 | 1034.9 ± 2.1 | 5.955 ± 0.12
303.15 K, x1 = 0.1905 | 1033.9 ± 2.1 | 7.032 ± 0.14
303.15 K, x1 = 0.2885 | 1029.8 ± 2.1 | 7.522 ± 0.15
303.15 K, x1 = 0.4019 | 1024.9 ± 2.1 | 7.547 ± 0.15
303.15 K, x1 = 0.4747 | 1022.3 ± 2.1 | 7.378 ± 0.15
303.15 K, x1 = 0.6076 | 1018.5 ± 2.1 | 6.868 ± 0.14
303.15 K, x1 = 0.7399 | 1015.5 ± 2.1 | 6.386 ± 0.13
303.15 K, x1 = 0.8176 | 1014.1 ± 2.1 | 6.178 ± 0.13
303.15 K, x1 = 0.8956 | 1013.1 ± 2.1 | 5.884 ± 0.12
303.15 K, x1 = 1 | 1011.9 ± 2.1 | 5.657 ± 0.12
308.15 K, x1 = 1 | 1008.1 ± 2.1 | –
313.15 K, x1 = 0.01119 | 999.7 ± 2 | 0.9341 ± 0.024
313.15 K, x1 = 0.02492 | 1007.5 ± 2 | 1.261 ± 0.031
313.15 K, x1 = 0.04128 | 1014.8 ± 2 | 1.747 ± 0.041
313.15 K, x1 = 0.06284 | 1021.8 ± 2.1 | 2.429 ± 0.055
313.15 K, x1 = 0.09179 | 1025.3 ± 2.1 | 3.265 ± 0.073
313.15 K, x1 = 0.1317 | 1026.5 ± 2.1 | 4.072 ± 0.09
313.15 K, x1 = 0.1905 | 1025.5 ± 2.1 | 4.899 ± 0.11
313.15 K, x1 = 0.2885 | 1021.4 ± 2.1 | 5.382 ± 0.12
313.15 K, x1 = 0.4019 | 1016.5 ± 2.1 | 5.391 ± 0.12
313.15 K, x1 = 0.4747 | 1013.9 ± 2.1 | 5.226 ± 0.11
313.15 K, x1 = 0.6076 | 1010.2 ± 2 | 4.953 ± 0.11
313.15 K, x1 = 0.7399 | 1007.4 ± 2 | 4.586 ± 0.1
313.15 K, x1 = 0.8176 | 1006.1 ± 2 | 4.457 ± 0.099
313.15 K, x1 = 0.8956 | 1005.1 ± 2.1 | 4.315 ± 0.096
313.15 K, x1 = 1 | 1003.9 ± 2.1 | 4.185 ± 0.094
323.15 K, x1 = 0.01119 | 995.1 ± 2 | 0.7411 ± 0.019
323.15 K, x1 = 0.02492 | 1002.1 ± 2 | 1.013 ± 0.025
323.15 K, x1 = 0.04128 | 1008.7 ± 2 | 1.369 ± 0.033
323.15 K, x1 = 0.06284 | 1014.4 ± 2 | 1.859 ± 0.043
323.15 K, x1 = 0.09179 | 1017.4 ± 2.1 | 2.436 ± 0.055
323.15 K, x1 = 0.1317 | 1018.1 ± 2.1 | 3.015 ± 0.068
323.15 K, x1 = 0.1905 | 1016.8 ± 2.1 | 3.558 ± 0.079
323.15 K, x1 = 0.2885 | 1012.7 ± 2 | 3.942 ± 0.087
323.15 K, x1 = 0.4019 | 1007.7 ± 2 | 3.965 ± 0.088
323.15 K, x1 = 0.4747 | 1005.2 ± 2 | 3.885 ± 0.086
323.15 K, x1 = 0.6076 | 1001.6 ± 2 | 3.735 ± 0.083
323.15 K, x1 = 0.7399 | 998.8 ± 2 | 3.552 ± 0.08
323.15 K, x1 = 0.8176 | 997.6 ± 2 | 3.509 ± 0.079
323.15 K, x1 = 0.8956 | 996.6 ± 2 | 3.437 ± 0.078
323.15 K, x1 = 1 | 995.5 ± 2 | 3.326 ± 0.076
333.15 K, x1 = 0.01119 | 989.6 ± 2 | 0.6117 ± 0.017
333.15 K, x1 = 0.02492 | 995.7 ± 2 | 0.8193 ± 0.021
333.15 K, x1 = 0.04128 | 1001.9 ± 2 | 1.092 ± 0.027
333.15 K, x1 = 0.06284 | 1006.2 ± 2 | 1.433 ± 0.034
333.15 K, x1 = 0.09179 | 1008.5 ± 2 | 1.853 ± 0.043
333.15 K, x1 = 0.1317 | 1008.7 ± 2 | 2.252 ± 0.051
333.15 K, x1 = 0.1905 | 1007.3 ± 2 | 2.652 ± 0.06
333.15 K, x1 = 0.2885 | 1003.1 ± 2 | 2.923 ± 0.066
333.15 K, x1 = 0.4019 | 998.5 ± 2 | 3.006 ± 0.068
333.15 K, x1 = 0.4747 | 996.1 ± 2 | 2.953 ± 0.067
333.15 K, x1 = 0.6076 | 992.5 ± 2 | 2.879 ± 0.065
333.15 K, x1 = 0.7399 | 989.8 ± 2 | 2.774 ± 0.063
333.15 K, x1 = 0.8176 | 988.6 ± 2 | 2.728 ± 0.062
333.15 K, x1 = 0.8956 | 987.7 ± 2 | 2.697 ± 0.062
333.15 K, x1 = 1 | 986.7 ± 2 | 2.627 ± 0.061
